HELM strings list units from the 5' end as sugar, base in round brackets, then linkage (d deoxyribose, r ribose, m 2'-O-methyl, p phosphodiester). Strings are as the collection lists them; they lack the last nucleoside at the 3' end of the tested compound. [moe] = 2'-O-(2-methoxyethyl) (MOE); [sp] = phosphorothioate linkage; [m5C] = 5-methylcytosine
What follows are substances tested against SCN2A (assay: mouse, dose not given). Settings: ASO.

Q: “RNA1{[moe](A)[sp].[moe](T)p.[moe](T)p.[moe](T)p.[moe]([m5C])p.d(T)[sp].d(A)[sp].d(T)[sp].d(A)[sp].d(A)[sp].d([m5C])[sp].d(T)[sp].d([m5C])[sp].d(A)[sp].d(G)[sp].[moe]([m5C])p.[moe](A)p.[moe](A)[sp].[moe]([m5C])}$$$$ (last 3' nucleoside missing)” was tested. Which 3 h FOB score did it give?
A: Its 3 h FOB score is 0 score 0-7.

Q: Which 3 h FOB score does the source give for “RNA1{[moe](A)[sp].[moe](T)p.[moe](T)p.[moe](T)p.d([m5C])[sp].d(T)[sp].d(A)[sp].d(T)[sp].d(A)[sp].d(A)[sp].d([m5C])[sp].d(T)[sp].d([m5C])[sp].d(A)[sp].[moe](G)p.[moe]([m5C])p.[moe](A)p.[moe](A)[sp].[moe]([m5C])}$$$$ (last 3' nucleoside missing)” here?
A: Its 3 h FOB score is 0 score 0-7.

Q: With “RNA1{[moe](A)[sp].[moe](T)p.[moe](T)p.[moe]([m5C])p.[moe](T)p.[moe](A)p.d(T)[sp].d(T)[sp].d(T)[sp].d(T)[sp].d(A)[sp].d(T)[sp].d(A)[sp].d(A)[sp].d(A)[sp].d(T)[sp].[moe](G)p.[moe]([m5C])[sp].[moe]([m5C])}$$$$ (last 3' nucleoside missing)” as the substance, how does the 3 h FOB score read?
A: Its 3 h FOB score is 2 score 0-7.

Q: How did the 3 h FOB score turn out when “RNA1{[moe](A)[sp].[moe](T)p.[moe](T)p.[moe]([m5C])p.[moe](T)p.d(A)[sp].d(T)[sp].d(T)[sp].d(T)[sp].d(T)[sp].d(A)[sp].d(T)[sp].d(A)[sp].d(A)[sp].d(A)[sp].[moe](T)p.[moe](G)p.[moe]([m5C])[sp].[moe]([m5C])}$$$$ (last 3' nucleoside missing)” was run?
A: Its 3 h FOB score is 1 score 0-7.

Q: For “RNA1{[moe](A)[sp].[moe](T)p.[moe](T)p.[moe]([m5C])p.[moe](T)p.d(G)[sp].d([m5C])[sp].d(A)[sp].d(T)[sp].d(G)[sp].d(T)[sp].d(A)[sp].d(A)[sp].d([m5C])[sp].d([m5C])[sp].[moe](T)p.[moe](T)p.[moe](T)[sp].[moe](A)}$$$$ (last 3' nucleoside missing)”, which 3 h FOB score is on record?
A: Its 3 h FOB score is 3 score 0-7.

Q: “RNA1{[moe](A)[sp].[moe](T)p.[moe](T)p.[moe]([m5C])p.d(T)[sp].d(A)[sp].d(T)[sp].d(T)[sp].d(T)[sp].d(T)[sp].d(A)[sp].d(T)[sp].d(A)[sp].d(A)[sp].[moe](A)p.[moe](T)p.[moe](G)p.[moe]([m5C])[sp].[moe]([m5C])}$$$$ (last 3' nucleoside missing)” was tested. Which 3 h FOB score did it give?
A: Its 3 h FOB score is 2.67 score 0-7.

Q: “RNA1{[moe](A)[sp].[moe](T)p.[moe]([m5C])p.[moe](A)p.[moe](T)p.[moe](G)p.d([m5C])[sp].d(A)[sp].d(T)[sp].d(A)[sp].d(A)[sp].d(T)[sp].d([m5C])[sp].d([m5C])[sp].d([m5C])[sp].d(A)[sp].[moe](T)p.[moe](T)[sp].[moe](A)}$$$$ (last 3' nucleoside missing)” was tested. Which 3 h FOB score did it give?
A: The 3 h FOB score was 0 score 0-7.

Q: With “RNA1{[moe](A)[sp].[moe](T)p.[moe]([m5C])p.[moe](A)p.[moe](T)p.d(G)[sp].d([m5C])[sp].d(A)[sp].d(T)[sp].d(A)[sp].d(A)[sp].d(T)[sp].d([m5C])[sp].d([m5C])[sp].d([m5C])[sp].[moe](A)p.[moe](T)p.[moe](T)[sp].[moe](A)}$$$$ (last 3' nucleoside missing)” as the substance, how does the 3 h FOB score read?
A: Its 3 h FOB score is 0 score 0-7.

Q: Which 3 h FOB score does the source give for “RNA1{[moe](A)[sp].[moe](T)p.[moe]([m5C])p.[moe](A)p.[moe]([m5C])p.[moe](T)p.d(T)[sp].d(T)[sp].d([m5C])[sp].d(A)[sp].d(T)[sp].d([m5C])[sp].d([m5C])[sp].d(A)[sp].d([m5C])[sp].d(G)[sp].[moe](A)p.[moe]([m5C])[sp].[moe](A)}$$$$ (last 3' nucleoside missing)” here?
A: Its 3 h FOB score is 0 score 0-7.

Q: With “RNA1{[moe](A)[sp].[moe](T)p.[moe]([m5C])p.[moe](A)p.[moe]([m5C])p.d(T)[sp].d(T)[sp].d(T)[sp].d([m5C])[sp].d(A)[sp].d(T)[sp].d([m5C])[sp].d([m5C])[sp].d(A)[sp].d([m5C])[sp].[moe](G)p.[moe](A)p.[moe]([m5C])[sp].[moe](A)}$$$$ (last 3' nucleoside missing)” as the substance, how does the 3 h FOB score read?
A: The 3 h FOB score was 1 score 0-7.

Q: Which 3 h FOB score does the source give for “RNA1{[moe](A)[sp].[moe](T)p.[moe]([m5C])p.[moe](A)p.d(T)[sp].d(G)[sp].d([m5C])[sp].d(A)[sp].d(T)[sp].d(A)[sp].d(A)[sp].d(T)[sp].d([m5C])[sp].d([m5C])[sp].[moe]([m5C])p.[moe](A)p.[moe](T)p.[moe](T)[sp].[moe](A)}$$$$ (last 3' nucleoside missing)” here?
A: Its 3 h FOB score is 1 score 0-7.

Q: Which 3 h FOB score does the source give for “RNA1{[moe](A)[sp].[moe](T)p.[moe]([m5C])p.[moe](A)p.d([m5C])[sp].d(T)[sp].d(T)[sp].d(T)[sp].d([m5C])[sp].d(A)[sp].d(T)[sp].d([m5C])[sp].d([m5C])[sp].d(A)[sp].[moe]([m5C])p.[moe](G)p.[moe](A)p.[moe]([m5C])[sp].[moe](A)}$$$$ (last 3' nucleoside missing)” here?
A: Its 3 h FOB score is 1 score 0-7.

Q: For “RNA1{[moe](A)[sp].[moe](T)p.[moe]([m5C])p.[moe](G)p.[moe](A)p.d(T)[sp].d(T)[sp].d([m5C])[sp].d([m5C])[sp].d(T)[sp].d(T)[sp].d(T)[sp].d([m5C])[sp].d(T)[sp].d(G)[sp].[moe]([m5C])p.[moe](A)p.[moe](T)[sp].[moe]([m5C])}$$$$ (last 3' nucleoside missing)”, which 3 h FOB score is on record?
A: Its 3 h FOB score is 1 score 0-7.

Q: How did the 3 h FOB score turn out when “RNA1{[moe](A)[sp].[moe]([m5C])p.[moe](A)p.[moe](T)p.[moe](A)p.[moe](T)p.d(T)[sp].d(T)[sp].d(T)[sp].d(T)[sp].d([m5C])[sp].d(T)[sp].d(A)[sp].d([m5C])[sp].d(A)[sp].d([m5C])[sp].[moe](T)p.[moe](G)[sp].[moe]([m5C])}$$$$ (last 3' nucleoside missing)” was run?
A: Its 3 h FOB score is 0 score 0-7.

Q: “RNA1{[moe](A)[sp].[moe]([m5C])p.[moe](A)p.[moe](T)p.[moe](A)p.d(T)[sp].d(T)[sp].d(T)[sp].d(T)[sp].d(T)[sp].d([m5C])[sp].d(T)[sp].d(A)[sp].d([m5C])[sp].d(A)[sp].[moe]([m5C])p.[moe](T)p.[moe](G)[sp].[moe]([m5C])}$$$$ (last 3' nucleoside missing)” was tested. Which 3 h FOB score did it give?
A: Its 3 h FOB score is 0 score 0-7.

Q: For “RNA1{[moe](A)[sp].[moe]([m5C])p.[moe](A)p.[moe](T)p.d(A)[sp].d(T)[sp].d(T)[sp].d(T)[sp].d(T)[sp].d(T)[sp].d([m5C])[sp].d(T)[sp].d(A)[sp].d([m5C])[sp].[moe](A)p.[moe]([m5C])p.[moe](T)p.[moe](G)[sp].[moe]([m5C])}$$$$ (last 3' nucleoside missing)”, which 3 h FOB score is on record?
A: Its 3 h FOB score is 0.33 score 0-7.

Q: For “RNA1{[moe](A)[sp].[moe]([m5C])p.[moe](G)p.[moe](A)p.[moe]([m5C])p.[moe](A)p.d(T)[sp].d(A)[sp].d(T)[sp].d(T)[sp].d(T)[sp].d(T)[sp].d(T)[sp].d([m5C])[sp].d(T)[sp].d(A)[sp].[moe]([m5C])p.[moe](A)[sp].[moe]([m5C])}$$$$ (last 3' nucleoside missing)”, which 3 h FOB score is on record?
A: Its 3 h FOB score is 0 score 0-7.

Q: For “RNA1{[moe](A)[sp].[moe]([m5C])p.[moe](G)p.[moe](A)p.[moe]([m5C])p.d(A)[sp].d(T)[sp].d(A)[sp].d(T)[sp].d(T)[sp].d(T)[sp].d(T)[sp].d(T)[sp].d([m5C])[sp].d(T)[sp].[moe](A)p.[moe]([m5C])p.[moe](A)[sp].[moe]([m5C])}$$$$ (last 3' nucleoside missing)”, which 3 h FOB score is on record?
A: Its 3 h FOB score is 0 score 0-7.

From the OligoGym collection
